Reference: paper PMC6100082, “Pyridine-Ureas as Potential Anticancer Agents: Synthesis and In Vitro Biological Evaluation” (Molecules : A Journal of Synthetic Chemistry and Natural …, 2018)
Read-outs that look alike come from different tables or passages of the source.

How the values were obtained:
UACC-257 = test: NCI one-dose SRB assay (Melanoma); format: cell-based, human
Outline: (§1)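 One-dose primary screen per NCI Drug Evaluation Branch protocol: 10^−5 M compound, 48 h, SRB viability/growth read-out, GI% reported.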

SK-MEL-28 = test: NCI one-dose SRB assay (Melanoma); format: cell-based, human
Outline: as §1

[1] = system: breast cancer MCF-7 cell line; test: In vitro anti-proliferative activity, MTT assay; format: cell-based, human; conditions: Homo sapiens, MCF-7, MTT
Description: The in vitro anti-proliferative activity of the newly prepared pyridine-ureas 8a–n was examined against breast cancer MCF-7 cell line. The assay was carried out, as triplicates, utilizing the 3-(4,5-dimethylthiazol-2-yl)-2,5-diphenyltetrazolium bromide (MTT) colorimetric assay as described by T. Mosmann. Doxorubicin and Sorafenib were included in this assay as a reference drug.
MCF-7 (human breast cancer cell line) and WI-38 (human lung fibroblast cell line), were obtained from American Type Culture Collection (Manassas, VA, USA). The cells were propagated in DMEM and supplemented with 10% heat-inactivated FBS (Hyclone), 10 μg/mL of insulin (Manufacturer, Sigma, St. Louis, MO, USA), and 1% penicillin-streptomycin. MTT assay was utilized to examine the in vitro anti-proliferative activity of the newly prepared ureas following the reported procedures. […] The data presented are the mean of at least three separate experiments.

PC-3 = test: NCI one-dose SRB assay (Prostate); format: cell-based, human
Description: (§2) The structures of all the newly prepared pyridine-ureas 8a–n were submitted to the National Cancer Institute (NCI) Developmental Therapeutic Program. Eight compounds 8b, 8d, 8e, 8i, 8j and 8l–n were selected to be examined for their in vitro growth inhibitory activity. The anticancer assays were carried out according to the protocol of the Drug Evaluation Branch, NCI, Bethesda. The selected pyridine-ureas were tested at one dose primary anticancer assay against a panel of approximately 58 cancer lines (concentration 10^−5 M). The tested human cancer cell lines emerged from nine different cancer subtypes: leukemia, colon, melanoma, ovarian, lung, CNS, renal, breast and prostate cancers. The sulforhodamine B (SRB) protein assay was adopted to estimate the cell viability and growth. The results were reported as mean-graph of the percentage growth of the treated cells, and presented as percentage growth inhibition (GI%) caused by the test compounds (Table 2).
(§3) The anticancer assays were performed in accordance with the protocol of the Drug Evaluation Branch, NCI, Bethesda. A 48 h drug exposure protocol was used and sulforhodamine B (SRB) protein assay was applied to estimate the cell viability and growth, as reported earlier.

DU-145 = test: NCI one-dose SRB assay (Prostate); format: cell-based, human
Description: as §2, §3

NCI 58 cell line panel = test: NCI one-dose SRB assay, whole panel / subpanel summary; format: cell-based, human
Description: as §2, §3

COLO 205 = test: NCI one-dose SRB assay (Colon Cancer); format: cell-based, human
Description: as §2, §3

KM12 = test: NCI one-dose SRB assay (Colon Cancer); format: cell-based, human
Description: as §2, §3

SW-620 = test: NCI one-dose SRB assay (Colon Cancer); format: cell-based, human
Description: as §2, §3

HCT-15 = test: NCI one-dose SRB assay (Colon Cancer); format: cell-based, human
Description: as §2, §3

HT29 = test: NCI one-dose SRB assay (Colon Cancer); format: cell-based, human
Description: as §2, §3

CCRF-CEM = test: NCI one-dose SRB assay (Leukemia); format: cell-based, human
Description: as §2, §3

RPMI-8226 = test: NCI one-dose SRB assay (Leukemia); format: cell-based, human
Description: as §2, §3

SR = test: NCI one-dose SRB assay (Leukemia); format: cell-based, human
Description: as §2, §3

K-562 = test: NCI one-dose SRB assay (Leukemia); format: cell-based, human
Description: as §2, §3

HL-60(TB) = test: NCI one-dose SRB assay (Leukemia); format: cell-based, human
Description: as §2, §3

MOLT-4 = test: NCI one-dose SRB assay (Leukemia); format: cell-based, human
Description: as §2, §3

SN12C = test: NCI one-dose SRB assay (Renal Cancer); format: cell-based, human
Description: as §2, §3

A498 = test: NCI one-dose SRB assay (Renal Cancer); format: cell-based, human
Description: as §2, §3

RXF 393 = test: NCI one-dose SRB assay (Renal Cancer); format: cell-based, human
Description: as §2, §3

TK-10 = test: NCI one-dose SRB assay (Renal Cancer); format: cell-based, human
Description: as §2, §3

786-0 = test: NCI one-dose SRB assay (Renal Cancer); format: cell-based, human
Description: as §2, §3

UO-31 = test: NCI one-dose SRB assay (Renal Cancer); format: cell-based, human
Description: as §2, §3

[2] = Homo sapiens, 10 μM, read-out: Percentage growth inhibition (GI%)

For `COc1ccc(-c2ccc(NC(=O)Nc3ccc(Cl)c(C(F)(F)F)c3)c(C)n2)cc1` [Compound 8e, 1-(4-Chloro-3-(trifluoromethyl)phenyl)-3-(6-(4-methoxyphenyl)-2-methylpyridin-3-yl)urea], the inhibition at 10 µM (UACC-257; Homo sapiens, UACC-257, 10 μM, read-out: Percentage growth inhibition (GI%)) was 43%, the “Growth Percent” value (UACC-257; UACC-257, 1.00E-5 Molar) was 57.07% and the inhibition at 10 µM (SK-MEL-28; Homo sapiens, SK-MEL-28, 10 μM, read-out: Percentage growth inhibition (GI%)) was 29%. The “Growth Percent” value (SK-MEL-28; SK-MEL-28, 1.00E-5 Molar) was 71.43%, the IC50 ([1]; MCF7, 48 h, 48 h of incubation, read-out: IC50 48 h) was 220 ± 20 nM and the IC50 ([1]; MCF7, 72 h, 72 h of incubation, read-out: IC50 72 h) was 110 ± 100 nM. The inhibition at 10 µM (PC-3; Homo sapiens, PC-3, 10 μM, read-out: Percentage growth inhibition (GI%)) was 86%, the “Growth Percent” value (PC-3; PC-3, 1.00E-5 Molar) was 14.67% and the “Growth Percent” value (DU-145; DU-145, 1.00E-5 Molar) was 54.52%. For the same compound, the inhibition at 10 µM (DU-145; Homo sapiens, DU-145, 10 μM, read-out: Percentage growth inhibition (GI%)) was 46%, the inhibition at 10 µM (NCI 58 cell line panel; Homo sapiens, 10 μM, one dose, read-out: mean inhibition (mean % growth inhibition over NCI 58 cell line panel)) was 49% and the “Mean Growth Percent” value (NCI 58 cell line panel; One Dose Mean Graph, 1.00E-5 Molar) was 51.42%. For the same compound, the melting point was 195 to 197 °C, the “Growth Percent” value (COLO 205; COLO 205, 1.00E-5 Molar) was 80.09% and the inhibition at 10 µM (COLO 205; Homo sapiens, COLO 205, 10 μM, read-out: Percentage growth inhibition (GI%)) was 20%. For the same compound, the inhibition at 10 µM (KM12; Homo sapiens, KM12, 10 μM, read-out: Percentage growth inhibition (GI%)) was 63%, the “Growth Percent” value (KM12; KM12, 1.00E-5 Molar) was 37.36% and the inhibition at 10 µM (SW-620; Homo sapiens, SW-620, 10 μM, read-out: Percentage growth inhibition (GI%)) was 33%. For the same compound, the “Growth Percent” value (SW-620; SW-620, 1.00E-5 Molar) was 67.04%, the “Growth Percent” value (HCT-15; HCT-15, 1.00E-5 Molar) was 37.80% and the inhibition at 10 µM (HCT-15; Homo sapiens, HCT-15, 10 μM, read-out: Percentage growth inhibition (GI%)) was 63%. The “Growth Percent” value (HT29; HT29, 1.00E-5 Molar) was 46.44%, the inhibition at 10 µM (HT29; Homo sapiens, HT-29, HT29, 10 μM, read-out: Percentage growth inhibition (GI%)) was 54% and the “Growth Percent” value (CCRF-CEM; 1.00E-5 Molar) was 29.88%. For the same compound, the inhibition at 10 µM (CCRF-CEM; [2]) was 71%, the inhibition at 10 µM (RPMI-8226; Homo sapiens, RPMI-8226, 10 μM, read-out: Percentage growth inhibition (GI%)) was 91% and the “Growth Percent” value (RPMI-8226; RPMI-8226, 1.00E-5 Molar) was 9.87%. For the same compound, the “Growth Percent” value (SR; 1.00E-5 Molar) was 35.68%, the inhibition at 10 µM (SR; [2]) was 65% and the inhibition at 10 µM (K-562; Homo sapiens, K562, K-562, 10 μM, read-out: Percentage growth inhibition (GI%)) was 84%. For the same compound, the “Growth Percent” value (K-562; K-562, 1.00E-5 Molar) was 16.70%, the “Growth Percent” value (HL-60(TB); 1.00E-5 Molar) was 32.27% and the inhibition at 10 µM (HL-60(TB); [2]) was 68%. The inhibition at 10 µM (MOLT-4; Homo sapiens, MOLT-4, 10 μM, read-out: Percentage growth inhibition (GI%)) was 76%, the “Growth Percent” value (MOLT-4; MOLT-4, 1.00E-5 Molar) was 24.60% and the “Growth Percent” value (SN12C; 1.00E-5 Molar) was 57.41%. For the same compound, the inhibition at 10 µM (SN12C; [2]) was 43%, the “Growth Percent” value (A498; A498, 1.00E-5 Molar) was 57.74% and the inhibition at 10 µM (A498; Homo sapiens, A498, 10 μM, read-out: Percentage growth inhibition (GI%)) was 43%. The inhibition at 10 µM (RXF 393; Homo sapiens, RXF 393, 10 μM, read-out: Percentage growth inhibition (GI%)) was 19%, the “Growth Percent” value (RXF 393; RXF 393, 1.00E-5 Molar) was 81.37% and the inhibition at 10 µM (TK-10; Homo sapiens, TK-10, 10 μM, read-out: Percentage growth inhibition (GI%)) was 35%. For the same compound, the “Growth Percent” value (TK-10; TK-10, 1.00E-5 Molar) was 65.92%, the “Growth Percent” value (786-0; 786-0, 1.00E-5 Molar) was 56.08% and the inhibition at 10 µM (786-0; Homo sapiens, 786-0, 10 μM, read-out: Percentage growth inhibition (GI%)) was 44%. The inhibition at 10 µM (UO-31; Homo sapiens, UO-31, 10 μM, read-out: Percentage growth inhibition (GI%)) was 61% and the “Growth Percent” value (UO-31; UO-31, 1.00E-5 Molar) was 39.33%.
